Key:
H1299 lung cancer cells = assay: Cell viability of H1299 lung cancer cells; format: cell-based
Procedure: (§1) Methods for cell viability: Cells were plated in 96 wells/6 wells cell culture plates. After 24 hrs of plating, the treatments (added in the growth medium) were conducted. The following assays were performed after 24 hrs of the treatments (day 2). (FIGS. 15A, 17-20, 24-27)
(§2) MTT assay methods. For the MTT assay, […] of 5 mg/ml MTT-tetrazolium salts in PBS was added to each well containing the growth medium. After 3 hours of incubation, the medium was removed and the formazan crystals were dissolved by adding DMSO. The absorption of the formazan solution was measured using a spectrophotometer at a wavelength of 570 nm. FIGS. 15B, 21-22.
H1299 lung cancer cells were exposed to control, AP39 (AP) at 40 or 60 μM, Doxorubicin at 2.5 or 20 μM, thiolactate at 10 mM, AP39 and Doxorubicin, AP39 and thiolactate, or Doxorubicin and Thiolactate. […] FIGS. 20-22.

[1] = Oxygen Consumption Rate (OCR); format: cell-based; details: AP39, not significantly different in the presence of Dox
Source text: AP39 enhanced AMPK activation (A and B) and produced shorter isoform of Opa1, i.e. no longer isoform of Opa1. Oxygen consumption rates (OCR) with different treatments. […] Note AMPK substrate ACC phosphorylation.
It is possible that AP39 relies mostly on increased energy efficiency rather than on improving OCR after Dox treatment.

H9C2 cells = assay: Mitochondrial ROS, MitoSox Red, H9C2; format: cell-based, Rat; details: H9C2, AP39 and Dox co-treatment
Procedure: (§3) AP39 treatment also ameliorated Dox toxicity in a model of Rat cardiomyoblast cell line, H9C2. […] There was a narrow window of protection, as 30 μM and 50 μm doses were not as strong as the 40 μM dose (FIGS. 5A and B) in conferring protection. […] Note that Dox caused an apoptotic phenotype in correlation with ROS levels (FIG. 5F, Dox lane). This in vitro AP39 protection is modest when compared to the in vivo scenario. This difference may be due to rapid clearance of toxic metabolites (for instance, higher lactate production, FIG. 10D) and better oxygen supply (AP39 stimulated OCR, FIG. 7C) in vivo and lack of such sophistication in vitro.

[2] = Glucose, glutamine and lactate in cell culture supernatants; format: cell-based
Procedure: Quantification of glutamine, glucose and lactate in the cell culture supernatants at 16 and 24 hrs. n=3; p<0.05 or 0.01 (2 symbols); * vs Cont; # vs Dox at 16 hrs; and $ vs Cont; ^ vs Dox at 24 hrs.
To this end, 13C-glucose flux/isotope tracing and quantified metabolites through GC-MS were examined at 16 hrs and 24 hrs after the treatments. Glucose, glutamine and lactate were also measured in supernatants at these time points. […] With the exception of glycolytic metabolites, the remaining metabolic pathways (poor labeling) were non-operational after Dox treatment (FIG. 10A).
However, AP39 treatments caused dominant effects in glucose utilization (1.5 fold increase vs Dox at 24 hrs) and lactate production. Such high lactate production is one of the main reasons behind the modest in vitro protective ability of AP39 against Dox (FIG. 5), which is in contrast to the in vivo scenario (FIGS. 3 and 4). Thus, metabolomics and transcriptomic approaches led to better understanding of the protective function of AP39.

[3] = tested on: 786-O cells renal cancer cells; assay: Cell viability of 786-O renal cancer cells; format: cell-based
Procedure: as §1, §2
786-O cells renal cancer cells were exposed to control, AP39 (AP) at 40 or 60 μM, Doxorubicin at 2.5 or 20 μM, thiolactate at 10 mM, AP39 and Doxorubicin, AP39 and thiolactate, or Doxorubicin and Thiolactate. […] FIGS. 18 and 21.

[4] = tested on: cleaved caspase 3 and PARP, phospho ERK1/2 and phospho p38; assay: Western blot of apoptotic markers and stress signaling in H9C2; format: cell-based, Rat; details: H9C2, AP39 with Dox vs Dox only
Procedure: as §3

A549 lung cancer cells = assay: Cell viability of A549 lung cancer cells; format: cell-based
Procedure: as §1, §2
A549 lung cancer cells were exposed to control, AP39 (AP) at 40 or 60 μM, Doxorubicin at 2.5 or 20 μM, thiolactate at 10 mM, AP39 and Doxorubicin, AP39 and thiolactate, or Doxorubicin and Thiolactate. […] FIGS. 19 and 21.

[5] = AP39 40 or 60 μM, thiolactate 10 mM, 24 hrs
[6] = combination with Doxorubicin 2.5 μM

O=C(CCCCCCCCC[P+](c1ccccc1)(c1ccccc1)c1ccccc1)Oc1ccc(-c2cc(=S)ss2)cc1.[Br-] [AP39]
cell killing, agent alone (H1299 lung cancer cells; [5]): able to kill lung cancer cells | potency of low doses of Doxorubicin (H1299 lung cancer cells; [6]): able to increase the potency of low doses of Doxorubicin | Oxygen Consumption Rate (OCR) [1]: suppressed OCR | ROS in mitochondria (MitoSox Red) (H9C2 cells): significant amelioration of ROS in mitochondria | glutamine utilization (supernatants) ([2]; compared to control): suppressed glutamine utilization | lactate production ([2]; supernatants): potent inducer of lactate production | glucose utilization ([2]; supernatants, at 24 hrs): 1.5 fold increase vs Dox | cell killing, agent alone [3, 5]: able to kill renal cancer cells | potency of low doses of Doxorubicin [3, 6]: able to increase the potency of low doses of Doxorubicin | PARP and caspase 3 cleavage [4]: significantly reduced PARP and caspase 3 cleavage | stress signaling (activated ERK1/2 and p38 kinases) [4]: reduced stress signaling | cell killing, agent alone (A549 lung cancer cells; [5]): able to kill lung cancer cells | potency of low doses of Doxorubicin (A549 lung cancer cells; [6]): able to increase the potency of low doses of Doxorubicin
